Data: patent US12545637B2, “Extrahepatic targeted cationic lipid compound with high efficiency and low toxicity and its composition” (BEIJING YOUCARE KECHUANG PHARMACEUTICAL TECHNOLOGY CO., LTD., priority 2023, dated 2026)

How the values were obtained:
293T cells [1] = experiment: Fluorescent detection of Fluc-mRNA (cell transfection efficiency of LNP formulations); type: cell-based
[2] = Detection of encapsulation efficiency, drug loading concentration and total RNA concentration (RiboGreen); type: physicochemical
Summary of the method: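 Samples were diluted in 1×TE to about […], combined with TE and 0.1% Triton X-100 buffers, and held at 37 °C for 10 minutes before dye addition.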

293T cells [3] = experiment: Fluorescent detection of Fluc-mRNA (cell transfection efficiency of LNP formulations); type: cell-based; remark: listed apart in the source
293T cells [4] = experiment: Cell transfection test of LNP formulation of eGFP-mRNA (optimization of preparation conditions); type: cell-based
Description: The cationic lipid compound YK-407 synthesized in Example 1 was dissolved in ethanol with DSPC (AVT (Shanghai) Pharmaceutical Technology Co., Ltd.), cholesterol (AVT (Shanghai) Pharmaceutical Technology Co., Ltd.) and DMG-PEG2000 according to a molar ratio of 49:10:39.5:1.5, respectively, to prepare an ethanol lipid solution. The ethanol lipid solution was quickly added to citrate buffer (pH=4-5) by ethanol injection method, and vortexed for 30s for later use. eGFP-mRNA was diluted in citrate buffer (pH=4-5) to give an aqueous mRNA solution. A certain volume of liposome solution and mRNA aqueous solution were used to prepare liposomes at weight ratios of total lipids to mRNA of 5:1, 10:1, 15:1, 20:1, 30:1 and 35:1, respectively. The mixtures were sonicated at 25° C. for 15 min (with an ultrasonic frequency of 40 kHz and an ultrasonic power of 800 W). The resulted liposomes were diluted to 10 times volume with PBS, and then ultrafiltered with a 300KDa ultrafiltration tube to remove ethanol. Then the volume was fixed to a certain volume with PBS to give an LNP formulation encapsulating eGFP-mRNA using cationic lipid YK-407/DSPC/cholesterol/DMG-PEG2000 (49:10:39.5:1.5 in molar percentage).
The LNP formulation encapsulating eGFP-mRNA was prepared according to the method in 1, wherein the molar ratios of cationic lipid YK-407 to neutral lipid DSPC were 1:1, 3:1, 3.5:1, 4:1, 4.5:1, 4.9:1, 10:1, 15:1 and 20:1.
The LNP formulation encapsulating eGFP-mRNA was prepared according to the method in 1, wherein the cationic lipid in the carrier was YK-407, and the molar ratios of the polymer-conjugated lipid DMG-PEG2000 to the carrier were 0.5%, 1.5%, 3.5%, 5%, 10% and 15%, respectively.
The LNP formulation encapsulating eGFP-mRNA was prepared according to the method in 1, wherein the molar ratios of cationic lipid YK-407, neutral lipid DSPC, structured lipid cholesterol and polymer-conjugated lipid DMG-PEG2000 were 75:5:15:5, 49:10:39.5:1.5, 45:10:43.5:1.5, 45:25:20:10, 40:10:48.5:1.5, 35:10:53.5:1.5 and 25:5:65:5, respectively.
Cell recovery and passage: 293T cells were recovered, cultured in a culture dish, and passaged to the required number of cells.
Seeding plate: The cells in the culture dish were digested and counted. Cells were spread in a 96-well plate at 10,000 cells per well and in a 12-well plate at 150,000 cells per well. Cells were cultured overnight until the cells adhered to the wall.
Cell transfection test: The LNP formulation containing 1.5 μg of eGFP-mRNA prepared in Example 2 (the cationic lipid in the carrier was YK-407) and the Lipofectamin 3000 formulation of eGFP-mRNA were added respectively to the cell culture medium of the 12-well plate, and further incubated for 24 hours. The transfection efficiency of different samples was then investigated according to the fluorescence intensity by observing with a fluorescence microscope.

[5] = LNP formulation prepared from the cationic lipid

CCCCCCCCC(CCCCCCCC)OC(=O)CCCCCN(CCO)CCN(CCO)CCCCCC(=O)OC(CCCCCCCC)CCCCCCCC [YK-401, di(heptadecan-9-yl) 6,6′-(ethane-1,2-diyl-bis((2-hydroxyethyl)azanediyl))dihexanoate]
RLU value, times that of ALC-0315 (293T cells [1]; ratio vs ALC-0315): 2.56
RLU value, times that of HHMA (293T cells [1]; ratio vs HHMA): 2.70
RLU value, times that of Lipofectamine 3000 (293T cells [1]; ratio vs Lipofectamine 3000): 4.67
RLU value, times that of YK-009 (293T cells [1]; ratio vs YK-009): 1.09
RLU value, times that of YK-405 (293T cells [1]; ratio vs YK-405): 1.75
RLU value, times that of YK-406 (293T cells [1]; ratio vs YK-406): 71.69
RLU value, times that of YK-408 (293T cells [1]; ratio vs YK-408): 3.81
RLU value, times that of YK-409 (293T cells [1]; ratio vs YK-409): 8.37
RLU value, times that of YK-410 (293T cells [1]; ratio vs YK-410): 13.75
cell transfection efficiency, times that of YK-412 (293T cells [1]; ratio vs YK-412): 1.66
cell transfection efficiency, times that of YK-413 (293T cells [1]; ratio vs YK-413): 4.07
cell transfection efficiency, times that of YK-414 (293T cells [1]; ratio vs YK-414): 12.63
cell transfection efficiency, times that of YK-416 (293T cells [1]; ratio vs YK-416): 1.41
cell transfection efficiency, times that of YK-419 (293T cells [1]; ratio vs YK-419): 1.77
cell transfection efficiency, times that of YK-420 (293T cells [1]; ratio vs YK-420): 1.40
cell transfection efficiency, times that of YK-421 (293T cells [1]; ratio vs YK-421): 12.02
Drug loading concentration [2, 5]: 37.16 µg/mL
Encapsulation efficiency [2, 5]: 83.6%
Total RNA concentration [2, 5]: 41.71 µg/mL
encapsulation efficiency higher than ALC-0315 ([2]; difference vs ALC-0315): 20.3%
encapsulation efficiency higher than HIMA ([2]; difference vs HIMA (HHMA)): 23.4%
encapsulation efficiency higher than SM-102 ([2]; difference vs SM-102): 20.7%
encapsulation efficiency higher than YK-009 ([2]; difference vs YK-009): 20.2%
encapsulation efficiency higher than compound 21 ([2]; difference vs compound 21): 25.6%
encapsulation efficiency higher than compound 23 ([2]; difference vs compound 23): 27.4%
drug loading concentration, times that of ALC-0315 ([2]; ratio vs ALC-0315): 1.38
total RNA concentration, times that of ALC-0315 ([2]; ratio vs ALC-0315): 1.10
drug loading concentration, times that of HIMA ([2]; ratio vs HIMA (HHMA)): 1.14
total RNA concentration, times that of HIMA ([2]; ratio vs HIMA (HHMA)): 1.14
drug loading concentration, times that of SM-102 ([2]; ratio vs SM-102): 1.40
total RNA concentration, times that of SM-102 ([2]; ratio vs SM-102): 1.16
drug loading concentration, times that of YK-009 ([2]; ratio vs YK-009): 1.35
total RNA concentration, times that of YK-009 ([2]; ratio vs YK-009): 1.08
drug loading concentration, times that of compound 21 ([2]; ratio vs compound 21): 1.69
total RNA concentration, times that of compound 21 ([2]; ratio vs compound 21): 1.44
drug loading concentration, times that of compound 23 ([2]; ratio vs compound 23): 1.86
total RNA concentration, times that of compound 23 ([2]; ratio vs compound 23): 1.34
Relative light unit (RLU) (293T cells [3]; LNP with 0.3 μg Fluc-mRNA, 96-well plate, 24 hours): 5609550 RLU
cell transfection efficiency, times that of YK-415 (293T cells [3]; ratio vs YK-415): 18.82
cell transfection efficiency, times that of YK-417 (293T cells [3]; ratio vs YK-417): 47.83
cell transfection efficiency, times that of YK-418 (293T cells [3]; ratio vs YK-418): 50.42
cell transfection efficiency, times that of YK-424 (293T cells [3]; ratio vs YK-424): 1.95
RLU value, times that of compound 21 (293T cells [3]; ratio vs compound 21): 3.71
RLU value, times that of compound 23 (293T cells [3]; ratio vs compound 23): 4.00
transfection efficiency at different molar ratios of polymer-conjugated lipid DMG-PEG2000 to carrier (293T cells [4]; 0.5% to 15%): same results
transfection effect at different molar ratios of cationic lipid, neutral lipid, structured lipid and polymer-conjugated lipid (293T cells [4]; 75:5:15:5 to 25:5:65:5): same results
